# Results: US4014921A, “O-Acetoxy benzoate ester of 2(p-acetamido-phenyloxy)ethyl alcohol” (Alter, S.A., priority 1975, dated 1977)
# Read-outs that look alike come from different tables or passages of the source.
# What was measured:
# [1] = Toxicity test by oral administration in a rat (LD50, LD10); settings: rat, in vivo, po
# stomach or intestine [2] = test: Gastrointestinal toxicity: ulcers and hemorrhagic content after one dose of 500 mg/Kg in rats; settings: one dose of 500 mg/Kg, 10-rat groups
# edema = test: Anti-inflammatory activity: edema inhibition (method of Winter, Risley and Nuss); assay type: in vivo
# [3] = Analgesic activity (test by Randall and Salitto); assay type: in vivo
# Description: Int. Pharmacodyn 151, 409 (1957). Doses of 200, 300 and 500 mg/Kg. cause 1.43: 1.77 and 2.09 effects over controls.
# [4] = Anti-inflammatory activity: edema inhibition (method of Winter, Risley and Nuss); assay type: in vivo; settings: in vivo; LD50 / anti-inflammatory ED50; read-out: anti-inflammatory ED50 times lower than LD50
# rat [5] = test: Toxicity test by oral administration in a rat (LD50, LD10)
# [6] = Antithermic (antipyretic) activity: yeast extract-induced temperature rise in rabbits; assay type: in vivo, rabbit
# Description: Antithermic activity was determined in rabbits, adjusting an endovenous dose of yeast extract to achieve a + 1.7° C rise over the basal temperature of the animal. Three hours after injecting the pyrogenic agent, 200 mg/Kg of the product were administered interperitoneally.
# rat [7] = settings: in vivo, po
# stomach or intestine [8] = settings: rat, in vivo, 500 mg/kg
# [9] = comparison with aspirin, in words
structure (smiles),measurement,setting,value
CC(=O)Oc1ccccc1C(=O)O [aspirin],LD50,[1],978 mg/kg
same,rats whose stomachs revealed hemorrhagic content,stomach or intestine [2],60%
same,ulcers of the stomach or intestine,stomach or intestine [2],no ulcers
"COc1ccc2c(c1)c(CC(=O)O)c(C)n2C(=O)c1ccc(Cl)cc1 [indometacine, reference compound]",anti-inflammatory ED50 relative to toxic range,edema; in words,very close to the toxic range
"CC(=O)Nc1ccc(OCCOC(=O)c2ccccc2OC(C)=O)cc1 [Compound (I), o-acetoxy benzoate ester of 2(p-acetamido-phenyloxy)-ethyl alcohol]",analgesic activity relative to aspirin,[3]; [9],equipotential with respect to aspirin
same,analgesic effect over controls,[3]; dose 200 mg/Kg,1.43
same,analgesic effect over controls,[3]; dose 300 mg/Kg,1.77
same,analgesic effect over controls,[3]; dose 500 mg/Kg,2.09
same,selectivity ratio,[4],10
same,anti-inflammatory activity relative to aspirin,edema; [9],as active as aspirin
same,anti-inflammatory activity: times less active than indometacine,edema; comparison with indometacine,33 times
same,inhibition at 200 mg/kg,edema; dose 200 mg/Kg,23%
same,inhibition at 400 mg/kg,edema; dose 400 mg/Kg,31%
same,toxicity factor relative to aspirin,rat [5]; factor in favor of product (I) over aspirin,7
same,toxicity relative to aspirin,"rat [5]; oral, rat, in words",less toxic than aspirin
same,"animal's temperature after administration, for two consecutive hours","[6]; 200 mg/Kg interperitoneally, three hours after pyrogenic agent (+1.7° C rise)",decreased to its basal values
same,duration of antipyretic effect relative to aspirin and N-acetyl-p-aminophenol,[6]; in words,longer lasting effects
same,LD10 (maximum dose possible to administer),rat [7],"7,000 mg/Kg"
same,"gastrointestinal disorders, comparison with aspirin",stomach or intestine [8],clear differences appear in favor of compound (I) over aspirin
same,ulcers of the stomach or intestine,stomach or intestine [8],no ulcers
